In ChEMBL document CHEMBL4715808, “Discovery of (1S,2R,3S,4S,5R,6R)-2-Amino-3-[(3,4-difluorophenyl)sulfanylmethyl]-4-hydroxy-bicyclo[3.1.0]hexane-2,6-dicarboxylic Acid Hydrochloride (LY3020371·HCl): A Potent, Metabotropic Glutamate 2/3 Receptor Antagonist with Antidepressant-Like Activity” (J Med Chem, 2016):

What was measured:
[1] = molecular target: T1, Metabotropic glutamate receptor 2 (Homo sapiens, UniProt Q14416); assay: […] at mGlu2 (unknown origin)
[2] = molecular target: T2, Metabotropic glutamate receptor 3 (Homo sapiens, UniProt Q14832); assay: Antagonist activity at human recombinant mGlu3 receptor stably expressed in golden hamster AV12 cells co-expressing rat EAAT1 assessed as reduction in DCG IV-induced inhibition of forskolin-stimulated cAMP accumulation preincubated for 20 mins followed by incubation with cAMP-d2 conjugate and anti-cAMP cryptate for 1 hr by HTRF assay; type: functional, cell-based
[3] = molecular target: T2, Metabotropic glutamate receptor 3; assay: Displacement of [3H]-LY459477 from recombinant human mGlu3 receptor expressed in hamster AV12 cell membranes co-expressing rat EAAT1 incubated for 90 mins by top count scintillation method; parameters: species or system Cell membrane
[4] = molecular target: T1, Metabotropic glutamate receptor 2
Description: Antagonist activity at human recombinant mGlu2 receptor stably expressed in golden hamster AV12 cells co-expressing rat EAAT1 assessed as reduction in DCG IV-induced inhibition of forskolin-stimulated cAMP accumulation preincubated for 20 mins followed by incubation with cAMP-d2 conjugate and anti-cAMP cryptate for 1 hr by HTRF assay

[5] = molecular target: T1, Metabotropic glutamate receptor 2; remark: listed apart in the source
Description: Displacement of [3H]-LY459477 from recombinant human mGlu2 receptor expressed in hamster AV12 cell membranes co-expressing rat EAAT1 incubated for 90 mins by top count scintillation method

T1 sequence (Q14416 whole entry): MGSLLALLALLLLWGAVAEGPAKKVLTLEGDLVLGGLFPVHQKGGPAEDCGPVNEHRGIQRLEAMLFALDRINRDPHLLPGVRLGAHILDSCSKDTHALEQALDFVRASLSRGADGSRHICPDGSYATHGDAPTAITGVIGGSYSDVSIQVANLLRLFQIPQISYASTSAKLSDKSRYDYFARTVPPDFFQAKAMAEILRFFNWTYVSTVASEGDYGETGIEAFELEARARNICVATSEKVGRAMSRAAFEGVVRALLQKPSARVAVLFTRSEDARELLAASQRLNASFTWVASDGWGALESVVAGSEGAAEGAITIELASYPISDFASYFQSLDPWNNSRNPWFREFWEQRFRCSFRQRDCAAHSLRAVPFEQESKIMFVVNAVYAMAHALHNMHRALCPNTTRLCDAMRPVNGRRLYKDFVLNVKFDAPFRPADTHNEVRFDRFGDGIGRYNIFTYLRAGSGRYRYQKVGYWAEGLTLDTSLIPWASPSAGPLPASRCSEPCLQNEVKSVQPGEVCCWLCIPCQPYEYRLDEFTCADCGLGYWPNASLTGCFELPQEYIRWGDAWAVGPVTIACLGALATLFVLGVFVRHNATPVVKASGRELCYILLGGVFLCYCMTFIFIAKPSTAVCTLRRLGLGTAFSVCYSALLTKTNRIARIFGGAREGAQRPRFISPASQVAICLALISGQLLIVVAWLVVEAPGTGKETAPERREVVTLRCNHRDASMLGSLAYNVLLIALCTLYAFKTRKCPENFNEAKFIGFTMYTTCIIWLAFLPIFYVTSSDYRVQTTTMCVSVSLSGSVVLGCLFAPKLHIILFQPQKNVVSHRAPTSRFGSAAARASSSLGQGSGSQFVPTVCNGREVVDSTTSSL
T2 sequence (Q14832 whole entry): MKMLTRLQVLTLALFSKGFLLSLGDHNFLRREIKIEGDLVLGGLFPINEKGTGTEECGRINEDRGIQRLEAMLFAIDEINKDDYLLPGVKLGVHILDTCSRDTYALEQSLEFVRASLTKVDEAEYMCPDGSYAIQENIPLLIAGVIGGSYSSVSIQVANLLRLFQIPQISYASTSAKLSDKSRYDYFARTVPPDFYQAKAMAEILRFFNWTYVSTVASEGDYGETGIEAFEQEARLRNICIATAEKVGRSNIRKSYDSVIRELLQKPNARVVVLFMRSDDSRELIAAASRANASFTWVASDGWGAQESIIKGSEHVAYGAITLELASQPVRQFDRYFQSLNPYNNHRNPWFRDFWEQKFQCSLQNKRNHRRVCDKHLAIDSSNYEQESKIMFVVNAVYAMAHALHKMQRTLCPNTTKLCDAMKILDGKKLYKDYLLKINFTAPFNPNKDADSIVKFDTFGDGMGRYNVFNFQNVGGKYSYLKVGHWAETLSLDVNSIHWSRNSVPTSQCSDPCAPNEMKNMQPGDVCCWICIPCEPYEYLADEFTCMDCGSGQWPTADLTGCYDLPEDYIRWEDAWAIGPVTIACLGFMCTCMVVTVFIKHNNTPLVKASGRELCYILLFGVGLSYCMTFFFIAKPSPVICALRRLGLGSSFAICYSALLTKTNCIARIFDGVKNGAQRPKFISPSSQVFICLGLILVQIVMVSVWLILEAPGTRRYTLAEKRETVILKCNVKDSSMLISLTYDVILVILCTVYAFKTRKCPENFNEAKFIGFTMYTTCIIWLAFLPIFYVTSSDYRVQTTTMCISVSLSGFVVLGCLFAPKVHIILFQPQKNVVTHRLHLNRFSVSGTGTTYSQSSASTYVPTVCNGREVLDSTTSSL

IC50 [1] [nM]	IC50 [2] [nM]	Ki [3] [nM]	IC50 [4] [nM]	Ki [5] [nM]	Structure (SMILES)
8.6					N[C@@]1(C(=O)O)C[C@@H](O)[C@H]2[C@H](C(=O)O)[C@H]21
22.6					N[C@@]1(C(=O)O)C[C@H](O)[C@H]2[C@H](C(=O)O)[C@H]21
	110				N[C@@]1(C(=O)O)[C@H](Cc2ccc(F)c(Cl)c2)C[C@H]2[C@H](C(=O)O)[C@H]21
	12.4	7.7	26.2	9.2	CC(=O)N[C@H]1[C@H]2[C@H](C(=O)O)[C@H]2[C@](N)(C(=O)O)[C@@H]1CSc1ccc(F)c(C)c1
	56.5	9.4	9.8	8.4	N[C@]1(C(=O)O)[C@@H]2[C@@H](C(=O)O)[C@@H]2[C@H](O)[C@H]1CSc1ccc(Cl)c(Cl)c1
